Measurements: US20050261239A1, “Use of ATP for the manufacture of a medicament for treating certain inflammatory conditions, oxidative stress and fatigue” (Universiteit van Maastricht, priority 2004, published 2005)
Entries after “also recorded” stand apart in the source; their conditions may differ. Where two headings read alike, the source gives them in different places.

What was measured:
TNF-α [1] = assay: Purinergic compounds on LPS+PHA-induced TNF-α secretion in whole blood, Experiment 3; type: cell-based, human; conditions: for inhibiting TNFα production in LPS-PHA stimulated whole blood, compared with ATP: pretreatment of whole blood, initial findings, ATP compared with ADP, AMP or adenosine; for effect on LPS+PHA-induced TNF-α release (FIG. 8): compound at 300 μM, 24 h, order of inhibition adenosine<AMP<ADP<ATP; for anti-inflammatory effects relative to those of ATP: same whole blood model ex vivo
Description: (§1) Blood is collected as described for Experiment 1. Whole blood is then aliquoted into 24-well sterile plates and diluted 1:4 with RPMI 1640 (supplemented with L-glutamine). To induce cytokine production, PHA and bacterial LPS are added to whole blood at 1 μg/ml and 10 μg/ml respectively. After addition of ATP and stimulants, the plates are incubated in 5% CO2 at 37° C. for 24 h. Cell-free supernatant fluids are then collected by centrifugation (6000 rpm, 10 min at 4° C.) and stored at −20° C. until tested for presence of cytokines. All incubations are performed in duplicate. ATP, dissolved in RPMI 1640 culture medium, is added to the blood at a final concentration of 1-1000 μM. Blood is pre-incubated with ATP at 5% CO2 at 37° C. for 30 min before stimulation with LPS+PHA. The agonists are added in the same way as ATP, however their stock solutions are prepared in PBS and further diluted in medium.

IL-10 [2] = assay: Purinergic compounds on LPS+PHA-induced IL-10 release in whole blood, Experiment 3; type: cell-based, human; conditions: pretreatment of whole blood; initial findings; ATP compared with ADP, AMP or adenosine
Description: as §1

[3] = test system: mice bearing colon tumour; conditions: daily intraperitoneal injections of 25 mmol/L for 10 consecutive days (refs 9, 10), cited from earlier work
[4] = test system: advanced non-small-cell lung cancer patients; conditions: cited from earlier work
IL-6 [5] = assay: LPS+PHA-induced IL-6 secretion in whole blood ex vivo (ELISA), Experiment 1; type: cell-based, human; conditions: whole blood of healthy subjects, 24 h; ATP 1-300 μM; disodium salt
Text: (§2) For the first experiment, purified phyto-haemagglutinin HA16 (PHA) and E. Coli 0.26: B6 lipopolysaccharide (LPS) were from Murex, Dartford, UK and Sigma Chemical Co, St. Louis, USA, respectively. Human TNF-α (7300 pg/ml) was obtained from CLB/Sanquin, The Netherlands. RPMI 1640 medium containing L-glutamine was obtained from Gibco, UK. Adenosine-5′-triphosphate disodium salt (ATP) was purchased from Calbiochem, USA.
(§3) Blood was collected from 8 healthy subjects in heparin containing vacutainer tubes (Vacutainer, Becton-Dickinson, 170 I.U). […] Whole blood was aliquoted into 24-well sterile plates and diluted 1:4 with RPMI 1640 (supplemented with L-glutamine). To induce cytokine production, PHA and bacterial LPS were added at 1 μg/ml and 10 μg/ml final concentration respectively. […]
(§4) All cytokines were quantified by means of PeliKine Compact human ELISA kits (CLB/Sanquin, The Netherlands), based on appropriate and validated sets of monoclonal antibodies. […] The antibody on the microtiter plate then captured the cytokine present in a measured volume of sample or standard, and non-bound material was removed by washing. […] Color development was stopped by addition of sulfuric acid and the intensity of the color was measured by a microtiter plate reader (absorbance at 450 nm). The absorbance was transformed to cytokine concentrations (ng/L) using the standard curve. […]

[6] = test system: healthy non-smoking human subjects; assay: Lactulose/rhamnose (L/R) intestinal permeability test after indomethacin, Experiment 4; type: in vivo; conditions: indomethacin (75 mg + 50 mg) and ATP into duodenum vs indomethacin only; 5 h urine
Description: Methods Intestinal permeability is tested in healthy non-smoking human subjects using the lactulose/rhamnose (L/R) intestinal permeability test. This barrier function test is based on the comparison of intestinal permeation of molecules of different sizes by measuring the ratio of urinary excretion of the disaccharide lactulose and the monosaccharide rhamnose. These two sugars follow different routes of intestinal permeation, i.e., lactulose permeates through the paracellular pathway, whereas rhamnose permeates transcellulary. The experiments are performed as follows: at t=−14 hrs, a Bengmark-type naso-intestinal tube (Flocare, Zoetermeer, The Netherlands) is installed into the stomach. Next, at t=−10 hrs, subjects ingest a capsule of indomethacin (75 mg) immediately followed by administration of either ATP or placebo directly into the subject's duodenum through the inserted tube. At t=−1 hr, after an overnight fast, subjects receive a second dose of indomethacin (50 mg) followed by either ATP or placebo. Then, at t=0, the permeability test is performed as follows: subjects ingest a hyperosmolar drink containing 5 g of lactulose and 0.5 g of L-rhamnose dissolve d in […] water. After ingestion of the hyperosmolar test drink, total urine produced over 5 hours is collected.

cancer patients = assay: Safety of intravenous ATP home infusions in cancer patients; type: in vivo, human; conditions: over 60 intravenous home infusions in cancer patients
Text: In order to determine the tolerance for ATP as well as the maximally tolerated dose of ATP, the first ATP infusion is preferably administered under medical supervision, usually in an in- or outpatient setting. Subsequent infusions can either be started at the hospital day care centre, at private homes, nursing homes, etc. according to a standardized protocol.

[7] = test system: patients with non-small cell lung cancer; conditions: 8 stage IIIB/IV patients; 2 to 3 intravenous courses of 96 hours at 4-week intervals (ref 11); cited from earlier work
IL-6 [8] = assay: LPS+PHA-induced IL-6 secretion in whole blood under oxidative stress (H2O2), Experiment 2; type: cell-based, human; conditions: whole blood with 1 or 10 mM H2O2, 24 h; ATP 1-300 μM; disodium salt
Description: (§5) Blood was collected from 8 healthy subjects in heparin containing vacutainer tubes (Vacutainer, Becton-Dickinson, 170 I.U). […] Whole blood was aliquoted into 24-well sterile plates and diluted 1:4 with RPMI 1640 (supplemented with L-glutamine). To induce cytokine production, PHA and bacterial LPS were added at 1 μg/ml and 10 μg/ml final concentration respectively. After adding the concentrated solutions of ATP and the stimulants the plates were incubated in 5% CO2 at 37° C. for 24 h. After the incubation cell-free supernatant fluids were collected by centrifugation (6000 rpm, 10 min at 4° C.) and stored at −20° C. until tested for presence of cytokines.
as §4, with “antibodies. Assays were performed as follows.” for “antibodies.”

TNF-α [9] = assay: LPS+PHA-induced TNF-α secretion in whole blood ex vivo (ELISA), Experiment 1; type: cell-based, human; conditions: 24 h
Text: as §2, §3, §4

IL-10 [10] = assay: LPS+PHA-induced IL-10 secretion in whole blood ex vivo (ELISA), Experiment 1; type: cell-based, human; conditions: 24 h
Text: as §2, §3, §4

IL-10 [11] = assay: LPS+PHA-induced IL-10 secretion in whole blood under oxidative stress (H2O2), Experiment 2; type: cell-based, human; conditions: whole blood with 1 or 10 mM H2O2, 24 h; ATP 1-300 μM; disodium salt
Description: as §5
as §4, with “antibodies. Assays were performed as follows.” for “antibodies.”

TNF-α [12] = assay: LPS+PHA-induced TNF-α secretion in whole blood under oxidative stress (H2O2), Experiment 2; type: cell-based, human; conditions: whole blood with 1 or 10 mM H2O2, 24 h; effect at 100 and 300 μM ATP; disodium salt
Description: as §5
as §4, with “antibodies. Assays were performed as follows.” for “antibodies.”

[13] = test system: patients with non-small cell lung cancer; conditions: 15 newly diagnosed patients; after 4 ATP courses (ref 12); cited from earlier work
[14] = whole blood of healthy subjects, effect at 100 and 300 μM ATP (tested 1-300 μM), disodium salt

CSc1nc(N)c2ncn([C@@H]3O[C@H](COP(=O)(O)OP(=O)(O)OP(=O)(O)O)[C@@H](O)[C@H]3O)c2n1 [2-MeS-ATP, reference compound]
inhibiting TNFα production in LPS-PHA stimulated whole blood, compared with ATP (TNF-α [1]): at least partly mimicked
stimulating IL-10 production in LPS-PHA stimulated whole blood, compared with ATP (IL-10 [2]): at least partly mimicked

Nc1ncnc2c1ncn2[C@@H]1O[C@H](COP(=O)(O)O)[C@@H](O)[C@H]1O [AMP]
effect on LPS+PHA-induced TNF-α release (FIG. 8) (TNF-α [1]): inhibited
anti-inflammatory effects relative to those of ATP (TNF-α [1]): less marked
host weight loss [3]: significant inhibition of host weight loss

Nc1ncnc2c1ncn2[C@@H]1O[C@H](CO)[C@@H](O)[C@H]1O [adenosine]
effect on LPS+PHA-induced TNF-α release (FIG. 8) (TNF-α [1]): least inhibition
host weight loss [3]: significant inhibition of host weight loss
host weight loss ([3]; listed as adenosine without phosphate): ineffective

O=c1ccn([C@@H]2O[C@H](COP(=O)(O)OP(=O)(O)O)[C@@H](O)[C@H]2O)c(=O)[nH]1 [UDP]
effect on LPS+PHA-induced TNF-α release (FIG. 8) (TNF-α [1]): not inhibited

Nc1ncnc2c1ncn2[C@@H]1O[C@H](COP(=O)(O)OP(=O)(O)O)[C@@H](O)[C@H]1O [ADP]
effect on LPS+PHA-induced TNF-α release (FIG. 8) (TNF-α [1]): inhibited
anti-inflammatory effects relative to those of ATP (TNF-α [1]): less marked

Nc1ccn([C@@H]2O[C@H](COP(=O)(O)OP(=O)(O)OP(=O)(O)O)[C@@H](O)[C@H]2O)c(=O)n1 [CTP]
effect on LPS+PHA-induced TNF-α release (FIG. 8) (TNF-α [1]): not inhibited

O=c1ccn([C@@H]2O[C@H](COP(=O)(O)OP(=O)(O)OP(=O)(O)O)[C@@H](O)[C@H]2O)c(=O)[nH]1 [UTP, uridine 5′-triphosphate]
effect on LPS+PHA-induced TNF-α release (FIG. 8) (TNF-α [1]): not inhibited

Nc1ncnc2c1ncn2[C@@H]1O[C@H](COP(=O)([O-])OP(=O)([O-])OP(=O)(O)O)[C@@H](O)[C@H]1O.[Na+].[Na+] [ATP, Adenosine-5′-triphosphate disodium salt]
physical and functional quality of life, appetite, and muscle strength ([4]; ATP group, progressively deteriorated in control group (ref 13)): remained stable
life-threatening side effects ([4]; ATP infusion during 30 hrs, previous study (13)): did not find any life-threatening side effects
plasma levels of pro- or anti-inflammatory cytokines ([4]; further analyses, Dagnelie et al. 2003, unpublished data): no effect
loss of weight and muscle mass ([4]; regular infusions vs control group with supportive care only (ref 13)): inhibited loss of weight and muscle mass
effect on LPS+PHA-induced IL-6 release (IL-6 [5]): failed to significantly alter; also recorded: not influenced
effect on LPS+PHA-induced TNF-α release (FIG. 8) (TNF-α [1]): greatest inhibition
inhibiting TNFα production in LPS-PHA stimulated whole blood, compared with ATP (TNF-α [1]): more effective
urinary concentration ratio of lactulose relative to rhamnose [6]: lower
hospital admissions (cancer patients): No hospital admissions were necessary
serious side effects on the WHO Common Toxicity Criteria scale (cancer patients): no serious side effects grade 3-4
body weight [7]: stabilisation of body weight
effect on LPS+PHA-induced IL-6 release under oxidative stress (IL-6 [8]): no effect; also recorded: not influenced
inhibition at 300 µM (TNF-α [9]; Homo sapiens, 300 μM ATP, whole blood, 10 μg/ml LPS + 1 μg/ml PHA, vs stimulation without ATP, read-out: inhibition of the TNF-α production): 65%
effect on LPS+PHA-induced TNF-α release (TNF-α [9]; [14]): dose-dependent inhibition; also recorded: significantly inhibited
host weight loss [3]: significant inhibition of host weight loss
stimulating IL-10 production in LPS-PHA stimulated whole blood, compared with ATP (IL-10 [2]): more effective
stimulation of the IL-10 production (IL-10 [10]; 300 μM ATP, whole blood, 10 μg/ml LPS + 1 μg/ml PHA, vs stimulation without ATP): 62%
effect on LPS+PHA-induced IL-10 release (IL-10 [10]; [14]): increased the release of IL-10; also recorded: significantly increased
effect on LPS+PHA-induced IL-10 release under oxidative stress (IL-10 [11]): significant, dose-dependent rise; also recorded: significantly increased
effect on LPS+PHA-induced TNF-α release under oxidative stress (TNF-α [12]): dose-dependent reduction; also recorded: significantly inhibited
average weight gain [13]: 1.3 kg
